# Where “and” joins values, the source holds several entries; their conditions need not be identical. Identical values can stand only once. No end group written: not given here.
# Test system: E. faecium strain C68 primary metabolites
# Assay: Targeted LC-MS/MS metabolomics
# Format: cell-based, Enterococcus faecium
# Settings: 5L at 2× MIC, 30 min vs control, n = 3
# Description: For the metabolomics sample preparation, we used exponential cultures of E. faecium strain C68 grown in BHI media adjusted to OD600 = 0.5. We treated 10 mL of this bacterial culture with 2× MIC of peptide 5L or water (for bacterial control) for 30 min at 37 °C (n = 3, technical replicates). After that, we washed the bacteria 3× times with PBS and stored the pellet at −20 °C. At a later stage, to each cell pellet, we added 0.2 mL of 2-propanol: 100 mM of NH4HCO3, pH 7.4 (1:1 v/v), and sonicated the cells. For spiking, we added 20 µL of IS to each sample and vortexed them. Subsequently, we added 1.0 mL of methanol for deproteinization and cooled the mixture at −20 °C for 10 min. After centrifugation for 10 min at 14,000× g at 4 °C, we transferred the supernatants into glass tubes and dried them under a stream of nitrogen at 40 °C. Finally, we dissolved the residues in 100 µL of water and injected 3 µL of this solution into an LC-MS/MS 8060 system (Shimadzu Scientific Inc., Columbia, MD, USA), equipped with a DUIS source operated in both positive and negative electrospray ionization modes. For the liquid chromatographic analysis, we used the Nexera UPLC system (Shimadzu Scientific Inc., Columbia, MD, USA). We quantitated primary metabolites (~150) following an established LC-MS/MS method.
substance,measurement,value
RRWLWLRRWLWR-NH2 [Peptide 5L],Fold change 2-Aminobutryc acid,0.480 fold
same,Fold change 4-Aminobutryc acid,4.319 fold
same,Fold change Adenine,0.311 fold
same,Fold change Adenylsuccinic acid,0.226 fold
same,Fold change Alanine,0.383 fold
same,Fold change Allantoin,2.67 fold
same,Fold change Arginosuccinic acid,0.204 fold
same,Fold change Aspartic acid,0.197 fold
same,Fold change Carbamoyl aspertate,2.212 fold
same,Fold change Citicoline,0.233 fold
same,Fold change Citric acid,0.244 fold
same,Fold change Cobalamine,2.285 fold
same,Fold change Cystathionine,0.369 fold
same,Fold change Cysteine,0.047 fold
same,Fold change Dopa,0.337 fold
same,Fold change Dopamine,3.107 fold
same,Fold change Fumaric acid,0.387 fold
same,Fold change Glutathione,0.376 fold
same,Fold change Guanine,0.130 fold
same,Fold change Guanosine,0.275 fold
same,Fold change Histidine,0.420 fold
same,Fold change Inosine,0.239 fold
same,Fold change Isocitric acid,0.237 fold
same,Fold change Isoleucine,0.458 fold
same,Fold change Kynureine,2.152 fold
same,Fold change Leucine,0.373 fold
same,Fold change Malic acid,0.392 fold
same,Fold change Methionine,0.175 fold
same,Fold change NAD,0.415 fold
same,Fold change Ornitine,0.378 fold
same,Fold change Oxidized glutathione,0.403 fold
same,Fold change Phenylalanine,0.423 fold
same,Fold change Putriscine,7.197 fold and 7 fold
same,Fold change S-Adenosylhomocysteine,0.267 fold
same,Fold change Serine,0.033 fold and 0.03 fold
same,Fold change Serotonin,2.886 fold
same,Fold change Succinic acid,0.204 fold
same,Fold change Symmetric dimethylarginine,2.347 fold
same,Fold change Threonine,0.384 fold
same,Fold change Thymidine,0.320 fold
same,Fold change Tryptophan,0.178 fold
same,Fold change Uridine,0.228 fold
same,Fold change Valine,0.433 fold
same,Fold change Xanthosine,0.315 fold
